Assay results from patent publication US4230725A, “Antiviral agent” (Sumitomo Chemical Company, Limited, priority 1977, dated 1980).
Counter-ions that a name gives are not always drawn. Like-named read-outs stand apart in the source and are kept apart here.

Experiments:
in vitro [1] = details: human, hela cells
in vitro [2] = details: human, kb cells
[3] = tested on: herpes simplex virus type I (HF strain); test: Effect on the growth of herpes virus in tissue cultures (tube dilution method); format: cell-based; details: for MIC: read-out: MIC (minimum virus growth inhibitory concentration); for MIC (minimum virus growth inhibitory concentration): host cells KB
Procedure: The antiviral activity was examined by the tube dilution method. HeLa cells and KB cells for the assay were cultured in YLE medium and Eagle MEM medium in vitro, respectively, containing 10% fetal calf serum. After the cells were grown in a monolayer form, the medium was exchanged to the fresh medium supplemented with 2% fetal calf serum, and then about 1000 TCD50 of herpes simplex virus type I (HF strain) and the test compound were added. After 72 hours' incubation at 37° C., the cytotoxicity of the compound and the virus induced cytopathic effect (CPE) were observed microscopically.
The antiviral activity was expressed in minimum virus growth inhibitory concentration (MIC) and minimum cytotoxic concentration (MCC) in Table 1.

Influenza Ao PR/8 = format: in vivo, ddY male mice; details: 7 days after infection, dose 0: 4.8
[4] = tested on: herpes and influenza viruses; test: Antiviral activity, overall statement; details: against herpes and influenza viruses; in vivo as well as in vitro
eyes of a rabbit = test: Herpes keratitis in rabbit: toxicity control eyes (scratched, not infected); format: in vivo; details: 0.5% eye lotion
Procedure: After 2% cocaine was applied to the eyes of a rabbit anesthetized with barbital, the corneal epithelium of each eye was scratched and infected with herpes simplex virus type I (HF strain).
The treatment with the compound A was carried out as follows: Twelve hours after virus infection, 0.5% eye lotion of the compound A in 1.4% polyvinyl alcohol was applied every two hours, five times a day during seven days.
For seven days after infection, the lesions on the conjunctiva, cornea and iris were daily observed visually prior to the first treatment and recorded according to the scoring method.
Separately from this, eyes of a rabbit were scratched but not infected with virus, one of the eyes was similarly treated with the compound A and the other eye was treated with 1.4% polyvinyl alcohol as toxicity control.

Acute toxicity in mice = details: mouse, in vivo
[5] = tested on: herpes simplex virus type I (HF strain); test: Therapeutic effect on herpes encephalitis in mice; format: in vivo; details: for Survival ratio: 21st day, untreated 0/10; for Mean survival term: 21 days
Procedure: Mice were anesthetized with ether and were infected intracerebrally […] with about 30 LD50 of herpes simplex virus type I (HF strain). The infected mice were administered with the compound A according to various therapeutic schedules. The therapeutic effects of the compound A were examined on the basis of the survival ratios at the 3rd week after virus infection and the mean survival days.
^a Dose of administration
^b Administration schedule of each route was as follows:
i.c. (intracerebrally): Single administration simultaneously with virus
p.o. (per os): Two administrations per day during 8.5 days from 4 hours
s.c. (subcutaneously): Two administrations per day during 8.5 days from 4
hours after virus infection.
i.v. (intravenously): Single administration 3 hours after virus infection
^c The animals were examined for 21 days after infection, and mean
survival term was determined.
^d Survival ratio on the 21st day after virus infection.

[6] = about 1000 TCD50, 72 hours at 37° C.

NC12CC3CC(CC(C3)C1)C2 [Amantadine hydrochloride, reference compound]
MCC at 72 h (in vitro [1]): > 50 µg/mL
MCC at 72 h (in vitro [2]): > 50 µg/mL
MIC ([3]; 72 h): 50 µg/mL
MIC (minimum virus growth inhibitory concentration) [3, 6]: 50 µg/mL
Lung Lesion Score (Influenza Ao PR/8; 10 mg/kg subcutaneous, *P < 0.05): 4.3
Lung Lesion Score (Influenza Ao PR/8; 25 mg/kg subcutaneous, *P < 0.05): 4.1
Lung Lesion Score (Influenza Ao PR/8; 50 mg/kg subcutaneous, *P < 0.05): 4.0

Cl.NC12CCCC(C1)C1CCC2C1 (stereo not drawn) [Compound A, 1-Amino-2,4-ethanobicyclo[3,3,1]nonane hydrochloride]
MCC at 72 h (in vitro [1]): 100 µg/mL
MCC at 72 h (in vitro [2]): 100 µg/mL
antiviral activity [4]: very strong antiviral activity
effect on cure period as compared with the toxicity control (eyes of a rabbit; five times a day during seven days, scratched uninfected rabbit eyes): did not prolong the cure period
toxicity of the eye lotion (eyes of a rabbit; rabbit eyes): no toxicity
LD50 (Acute toxicity in mice; iv): 58 mg/kg
LD50 (Acute toxicity in mice; po): 320 mg/kg
Survival ratio ([5]; 5 mg/kg i.c., single administration simultaneously with virus infection): 6/10
Mean survival term ([5]; 5 mg/kg i.c., single administration simultaneously with virus infection, untreated 5.7): 8.3 days
Survival ratio ([5]; 10 mg/kg i.v., single administration 3 hours after infection): 4/10
Mean survival term ([5]; 10 mg/kg i.v., single administration 3 hours after infection, untreated 5.8): 8.1 days
Survival ratio ([5]; 100 mg/kg p.o., two per day during 8.5 days from 4 hours after infection): 4/10
Mean survival term ([5]; 100 mg/kg p.o., two per day during 8.5 days from 4 hours after infection, untreated 5.5): 7.7 days
Survival ratio ([5]; 100 mg/kg s.c., two per day during 8.5 days from 4 hours after infection): 5/10
Mean survival term ([5]; 100 mg/kg s.c., two per day during 8.5 days from 4 hours after infection, untreated 5.7): 7.6 days
MIC ([3]; host cells HeLa, about 1000 TCD50, 72 hours at 37° C.): 2.5 µg/mL
MIC (minimum virus growth inhibitory concentration) [3, 6]: 2.5 µg/mL
Lung Lesion Score (Influenza Ao PR/8; 7.5 mg/kg subcutaneous, no asterisk): 4.4
Lung Lesion Score (Influenza Ao PR/8; 15 mg/kg subcutaneous, *P < 0.05): 4.2
Lung Lesion Score (Influenza Ao PR/8; 30 mg/kg subcutaneous, *P < 0.05): 4.0
